Columns and labels:
[1] = tested on: SMMC-7721; test: Antiproliferative activity against human SMMC-7721 cells by MTT assay; format: functional, cell-based
[2] = tested on: T-24; test: Antiproliferative activity against human T-24 cells by MTT assay; format: functional, cell-based
[3] = tested on: SK-OV-3; test: Antiproliferative activity against human SK-OV-3 cells by MTT assay; format: functional, cell-based
[4] = tested on: MGC-803; test: Antiproliferative activity against human MGC-803 cells by MTT assay; format: functional, cell-based
[5] = tested on: A549; test: cells; details: Homo sapiens
Description: Antiproliferative activity against human A549 cells by MTT assay

[6] = tested on: MGC-803; test: Antitumor activity against human MGC-803 cells xenografted in BALB/c nude mice assessed as tumor increment rate at 5 mg/kg, ip measured after 21 days relative to control; format: functional; details: time 21 day
[7] = tested on: MGC-803; test: Antitumor activity against human MGC-803 cells xenografted in BALB/c nude mice assessed as tumor inhibitory rate at 5 mg/kg, ip measured after 21 days relative to control; format: functional; details: Mus musculus, MGC-803, ip, 504 h, time 21 day

| Compound | IC50 [1] [µM] | IC50 [2] [µM] | IC50 [3] [µM] | IC50 [4] [µM] | IC50 [5] [µM] | T/C [6] [%] | inhibition in vivo at 5 mg/kg [7] [%] |
| --- | --- | --- | --- | --- | --- | --- | --- |
| O=C(c1ccccc1)N1CCN(c2c([N+](=O)[O-])cc3c4c(cccc24)C(=O)N(Cc2ccc(Cl)cc2)C3=O)CC1 | 13 | 20.9 | 15.9 | 19.9 | 47.7 | – | – |
| CC(C)(C)OC(=O)N1CCN(c2c([N+](=O)[O-])cc3c4c(cccc24)C(=O)N(CCc2ccc4c(c2)OCO4)C3=O)CC1 | 14.4 | 9.71 | 7.48 | 25.2 | 16.5 | – | – |
| CC(C)(C)OC(=O)N1CCN(c2c([N+](=O)[O-])cc3c4c(cccc24)C(=O)N(Cc2ccc(Cl)cc2)C3=O)CC1 | 7.76 | 9.52 | 12.7 | 16.1 | 40.4 | – | – |
| CN(C)CCN1C(=O)c2cccc3c(N4CCN(C(=S)SCc5ccccc5)CC4)c([N+](=O)[O-])cc(c23)C1=O | 3.17 | 2.06 | 2.4 | 6.08 | 1.98 | – | – |
| CC(C)(C)OC(=O)N1CCN(c2c([N+](=O)[O-])cc3c4c(cccc24)C(=O)N(CCc2ccc(O)c(O)c2)C3=O)CC1 | 27.5 | 11 | 8.87 | 8.77 | 42.1 | – | – |
| CN(C)CCN1C(=O)c2cccc3c(N4CCN(C(=O)OC(C)(C)C)CC4)c([N+](=O)[O-])cc(c23)C1=O | 1.05 | 0.83 | 0.65 | 1.33 | 1.08 | – | – |
| Cc1ccc(S(=O)(=O)N2CCN(c3c([N+](=O)[O-])cc4c5c(cccc35)C(=O)N(Cc3ccco3)C4=O)CC2)cc1 | 14.7 | 8.43 | 29.5 | 29.9 | 47.2 | – | – |
| O=C1c2cccc3c(N4CCN(C(=S)SCc5ccccc5)CC4)c([N+](=O)[O-])cc(c23)C(=O)N1CCc1ccc2c(c1)OCO2 | 12.9 | 9.16 | 44.8 | 20.7 | 33.4 | – | – |
| CN(C)CCN1C(=O)c2cccc3cc([N+](=O)[O-])cc(c23)C1=O [MITONAFIDE] | 3.22 | 1.11 | 1.38 | 6.8 | 0.012 | – | – |
| O=C(c1ccccc1)N1CCN(c2c([N+](=O)[O-])cc3c4c(cccc24)C(=O)N(CCO)C3=O)CC1 | 12 | 9.93 | 16.8 | 12.9 | 31.3 | – | – |
| O=C1c2cccc3c(N4CCN(C(=S)SCc5ccccc5)CC4)c([N+](=O)[O-])cc(c23)C(=O)N1Cc1ccc(Cl)cc1 | 8.83 | 10.3 | 29.7 | 20.7 | 40 | – | – |
| O=C1c2cccc3c(N4CCN(C(=S)SCc5ccccc5)CC4)c([N+](=O)[O-])cc(c23)C(=O)N1CCO | 14.3 | 13.2 | 31.4 | 15.4 | > 50 | – | – |
| CNCCCN1C(=O)c2cccc3c(N4CCN(C(=O)OC(C)(C)C)CC4)c([N+](=O)[O-])cc(c23)C1=O | 5.91 | 3.05 | 8.65 | 6.44 | 7.52 | – | – |
| Cc1ccc(S(=O)(=O)N2CCN(c3c([N+](=O)[O-])cc4c5c(cccc35)C(=O)N(CCc3ccc(O)c(O)c3)C4=O)CC2)cc1 | 12.3 | 11.4 | 20.4 | 21.8 | 24.7 | – | – |
| O=C1c2cccc3c(N4CCN(C(=S)SCc5ccccc5)CC4)c([N+](=O)[O-])cc(c23)C(=O)N1Cc1ccco1 | 11.6 | 18.4 | 40.4 | 21.2 | 44.5 | – | – |
| O=C1c2cccc3c(N4CCN(C(=S)SCc5ccccc5)CC4)c([N+](=O)[O-])cc(c23)C(=O)N1Nc1ccccc1 | 14.8 | 13.3 | > 50 | 18.4 | > 50 | – | – |

| Compound | IC50 [1] [µM] | IC50 [2] [µM] | IC50 [3] [µM] | IC50 [4] [µM] | IC50 [5] [µM] | T/C [6] [%] | inhibition in vivo at 5 mg/kg [7] [%] |
| --- | --- | --- | --- | --- | --- | --- | --- |
| COc1ccc(CN2C(=O)c3cccc4c(N5CCN(C(=S)SCc6ccccc6)CC5)c([N+](=O)[O-])cc(c34)C2=O)cc1 | 17.9 | 10.8 | 27 | 31.1 | 38.6 | – | – |
| Cc1ccc(S(=O)(=O)N2CCN(c3c([N+](=O)[O-])cc4c5c(cccc35)C(=O)N(CCO)C4=O)CC2)cc1 | 15.8 | 6.8 | 12.2 | 16 | 20.8 | – | – |
| Cc1ccc(S(=O)(=O)N2CCN(c3c([N+](=O)[O-])cc4c5c(cccc35)C(=O)N(Cc3ccc(Cl)cc3)C4=O)CC2)cc1 | 17.6 | 6.37 | 30.4 | 28.9 | > 50 | – | – |
| O=C(c1ccccc1)N1CCN(c2c([N+](=O)[O-])cc3c4c(cccc24)C(=O)N(CCc2ccc(O)c(O)c2)C3=O)CC1 | 19.7 | 14.6 | 19.9 | 9.31 | 22.5 | – | – |
| O=c1[nH]cc(F)c(=O)[nH]1 [FLUOROURACIL] | 15.3 | 40.1 | – | 34.9 | – | – | – |
| CCCCN1C(=O)c2cccc3c(N4CCN(S(=O)(=O)c5ccc(C)cc5)CC4)c([N+](=O)[O-])cc(c23)C1=O | 12.5 | 10.9 | 33.6 | 21.3 | 36.8 | – | – |
| Cc1ccc(S(=O)(=O)N2CCN(c3c([N+](=O)[O-])cc4c5c(cccc35)C(=O)N(CCc3ccc5c(c3)OCO5)C4=O)CC2)cc1 | 16.6 | 9.17 | 28.9 | 12.8 | 41.8 | – | – |
| O=C1c2cccc3c(N4CCN(C(=S)SCc5ccccc5)CC4)c([N+](=O)[O-])cc(c23)C(=O)N1Cc1ccccc1 | 13.5 | 13.1 | 34.2 | 21.7 | > 50 | – | – |
| Cc1ccc(S(=O)(=O)N2CCN(c3c([N+](=O)[O-])cc4c5c(cccc35)C(=O)N(Nc3ccccc3)C4=O)CC2)cc1 | 14.4 | 10.7 | 23.2 | 16.2 | 38.4 | – | – |
| O=C1c2cccc3c(N4CCN(C(=S)SCc5ccccc5)CC4)c([N+](=O)[O-])cc(c23)C(=O)N1CCc1ccc(O)c(O)c1 | 22.5 | 10.7 | 26.3 | 25.4 | 17.4 | – | – |
| COc1ccc(CN2C(=O)c3cccc4c(N5CCN(S(=O)(=O)c6ccc(C)cc6)CC5)c([N+](=O)[O-])cc(c34)C2=O)cc1 | 30.2 | 14.1 | 24.1 | 16.3 | 26.9 | – | – |
| CN(C)CCN1C(=O)c2cccc3cc(N)cc(c23)C1=O [AMONAFIDE] | 6.93 | 5.01 | 6.31 | 9.06 | 7.94 | 34.4 | 65.5 |
| CC(C)(C)OC(=O)N1CCN(c2c([N+](=O)[O-])cc3c4c(cccc24)C(=O)N(CCO)C3=O)CC1 | 13.9 | 12.8 | 13.4 | 27.4 | 45.6 | – | – |
| CNCCCN1C(=O)c2cccc3c(N4CCN(C(=O)c5ccccc5)CC4)c([N+](=O)[O-])cc(c23)C1=O | 4.73 | 4.65 | 4.11 | 8.22 | 6.66 | – | – |
| Cc1ccc(S(=O)(=O)N2CCN(c3c([N+](=O)[O-])cc4c5c(cccc35)C(=O)N(Cc3ccccc3)C4=O)CC2)cc1 | 14.8 | 12.7 | 38.2 | 10.8 | 42.9 | – | – |

Source: ChEMBL document CHEMBL4732079, “Design, synthesis and antitumor evaluation of new 1,8-naphthalimide derivatives targeting nuclear DNA” (Eur J Med Chem, 2021)
